# Experimental data: patent US20250332178A1, “METHODS OF TREATING MYCOBACTERIAL INFECTIONS USING TETRACYCLINE COMPOUNDS” (priority 2018, published 2025)
# Like-named read-outs stand apart in the source and are kept apart here.
# How the values were obtained:
# [1] = MIC by broth microdilution in CAMHB, clinical isolates; format: cell-based, Mycobacterium chelonae
# [2] = test system: M. abscessus subsp. abscessus CIP 104536; test: Time-kill kinetics assay; format: cell-based; details: for concentration for 1 log mycobacterial killing / concentration for 2 log mycobacterial killing / concentration for stasis (concentration-effect curve): after 7 days of exposure
# Protocol: Briefly, M. abscessus cultures were exposed to antimicrobial drugs at 4-fold increasing concentrations for 7 days at 37° C. under shaking conditions at 96 rpm. […] The drug concentrations ranged from 0.063 to 256 mg/L for both compounds. […] At day 1, 3 and 7 during drug exposure, samples were collected, centrifuged at 14000 xg to avoid anti-NTM drug carry over, serially diluted (10-fold, 10^0-10^7) and subcultured onto solid medium. […] The lower limit of detection was 5 cfu/mL (log 0.7). All experiments were performed in duplicate. Time-kill curves, as well as concentration-effect curves were generated.
# [3] = Intra-pulmonary steady-state concentrations (plasma, ELF, alveolar cells) after multiple IV doses in healthy adult subjects; format: in vivo, human
# Protocol: The remaining 20 subjects received tigecycline as 1 intravenous dose of 100 mg administered as a 30 minute infusion at t=0, followed by 6 intravenous doses of 50 mg administered as 30 minute infusions at t=12, 24, 36, 48, 60, and 72 hours. A study completion visit was conducted on the day following the final test article dose. There was a final follow-up assessment 7 to 14 days following the subject's last dose of test article which may be completed by telephone contact or other interactive technology unless an examination was needed to evaluate adverse events or abnormalities noted at the study completion visit.
# Plasma PK samples were collected pre-dose and at 0.5, 1, 1.5, 2, 3, 4, 6, 8, 12 and 24 hours post-dose on day 4. […] One BAL sample was collected from each subject on day 4. Subjects were randomized to one of the following collection times: 0.5, 1, 2, 4, 8, 12 or 24 hours post-dose.
# M. abscessus = details: strains of M. abscessus; Wallace et al.; cited from earlier work
# [4] = 52 patients, M. abscessus and M. chelonae infections; Wallace et al.; cited from earlier work
# [5] = test system: Bacille Calmette Guerin (BCG); format: cell-based, Mycobacterium bovis; details: disk: 15 μg of omadacycline
# [6] = test system: slow-growing NTM isolates; test: MIC (CLSI broth dilution), all slow-growing NTM isolates; format: cell-based, nontuberculous mycobacteria; details: small number of SGM isolates
# [7] = in vivo; cited from earlier work
# [8] = time-kill, up to 7 days exposure
# [9] = human, in vivo, Alveolar Macrophages (AM) concentration (mean ± SD)
# [10] = human, in vivo, Epithelial lining fluid (ELF) concentration (mean ± SD)
# [11] = human, in vivo, Plasma concentration (mean ± SD)
# [12] = human, in vivo, Ratio of Omadacycline Concentrations in Alveolar Cells to Plasma (Mean, SD)
# [13] = human, in vivo, Ratio of Omadacycline Concentrations in Epithelial Lining Fluid to Plasma (Mean, SD)
compound,measurement,setting,value
"CN(C)c1cc(NC(=O)CNC(C)(C)C)c(O)c2c1C[C@H]1C[C@H]3[C@H](N(C)C)C(O)=C(C(N)=O)C(=O)[C@@]3(O)C(O)=C1C2=O [Tigecycline, tigecycline]",MIC90,[1],0.125 µg/mL
same,MIC,"[1]; isolate No. 1, MC 7323",0.125 µg/mL
same,MIC,"[1]; isolate No. 2, MC 7534",0.03 µg/mL
same,MIC,"[1]; isolate No. 3, MC 7368",0.03 µg/mL
same,MIC,"[1]; isolate No. 4, MC 7514",0.06 µg/mL
same,MIC,"[1]; isolate No. 5, MC 7584",0.06 µg/mL
same,MIC,"[1]; isolate No. 6, MC 7192",0.03 µg/mL
same,MIC,"[1]; isolate No. 7, MC 7466",0.03 µg/mL
same,MIC,"[1]; isolate No. 8, MC 7533",0.125 µg/mL
same,MIC,"[1]; isolate No. 9, MC 7579",0.03 µg/mL
same,MIC,"[1]; isolate No. 10, MC 7614",0.125 µg/mL
same,MIC,"[1]; isolate No. 11, MC 7414",0.06 µg/mL
same,MIC,"[1]; isolate No. 12, MC 7313",0.25 µg/mL
same,MIC,"[1]; isolate No. 13, MC 7281",0.5 µg/mL
same,MIC,"[1]; isolate No. 14, MC 7328",0.015 µg/mL
same,MIC,"[1]; isolate No. 15, MC 7294",0.125 µg/mL
same,MIC,"[1]; isolate No. 16, MC 14-S-03",0.5 µg/mL
same,MIC,"[1]; isolate No. 17, MC 14-S-04",0.06 µg/mL
same,MIC,"[1]; isolate No. 18, MC 14-S-05",0.125 µg/mL
same,MIC,"[1]; isolate No. 19, MC 14-S-06",0.03 µg/mL
same,MIC,"[1]; isolate No. 20, MC 14-S-07",0.06 µg/mL
same,MIC,"[1]; isolate No. 21, MC 35757",0.125 µg/mL
same,MIC,"[1]; isolate No. 22, MC 7302",0.25 µg/mL
same,concentration for 1 log mycobacterial killing,[2],2.7 mg/L
same,concentration for 2 log mycobacterial killing,[2],3.4 mg/L
same,concentration for stasis (concentration-effect curve),[2],2.2 mg/L
same,concentrations showing mycobacterial killing,[2]; [8],≥ 4 mg/L
same,AUC,"[3]; human, in vivo, model-computed, compartment models, read-out: Total-drug AUC72-96, ELF (Median)",2590 ng·h/mL
same,Kp,"[3]; human, in vivo, model-computed, read-out: Penetration Ratio: total-drug ELF AUC72-84 to free-drug plasma AUC72-84 (Median)",1.87
same,"Free-drug AUC72-96, Plasma (Median)","[3]; model-computed, compartment models",1.38 mg·h/L
same,in vitro activity (in words),M. abscessus,good activity
same,"dose reductions due to nausea, vomiting or anorexia",[4],Approximately half of the patients had dose reductions
"CN(C)c1cc(CNCC(C)(C)C)c(O)c2c1C[C@H]1C[C@H]3C(N(C)C)C(O)=C(C(N)=O)C(=O)[C@@]3(O)C(O)=C1C2=O (stereo partly drawn) [Omadacycline, (4aS,5aR,12aS)-4,7-bis(dimethylamino)-3,10,12,12a-tetrahydroxy-9-((neopentylamino)methyl)-1,11-dioxo-1,4,4a,5,5a,6,11,12a-octahydrotetracene-2-carboxamide]",MIC90,"[1]; 22 clinical isolates, read-out: MIC90",0.25 µg/mL
same,MIC,"[1]; isolate No. 1, MC 7323, read-out: MIC",0.125 µg/mL
same,MIC,"[1]; isolate No. 2, MC 7534, read-out: MIC",0.03 µg/mL
same,MIC,"[1]; isolate No. 3, MC 7368, read-out: MIC",0.03 µg/mL
same,MIC,"[1]; isolate No. 4, MC 7514, read-out: MIC",0.06 µg/mL
same,MIC,"[1]; isolate No. 5, MC 7584, read-out: MIC",0.06 µg/mL
same,MIC,"[1]; isolate No. 6, MC 7192, read-out: MIC",0.015 µg/mL
same,MIC,"[1]; isolate No. 7, MC 7466, read-out: MIC",0.03 µg/mL
same,MIC,"[1]; isolate No. 8, MC 7533, read-out: MIC",0.25 µg/mL
same,MIC,"[1]; isolate No. 9, MC 7579, read-out: MIC",0.125 µg/mL
same,MIC,"[1]; isolate No. 10, MC 7614, read-out: MIC",0.125 µg/mL
same,MIC,"[1]; isolate No. 11, MC 7414, read-out: MIC",0.125 µg/mL
same,MIC,"[1]; isolate No. 12, MC 7313, read-out: MIC",0.125 µg/mL
same,MIC,"[1]; isolate No. 13, MC 7281, read-out: MIC",0.25 µg/mL
same,MIC,"[1]; isolate No. 14, MC 7328, read-out: MIC",0.015 µg/mL
same,MIC,"[1]; isolate No. 15, MC 7294, read-out: MIC",0.25 µg/mL
same,MIC,"[1]; isolate No. 16, MC 14-S-03, read-out: MIC",0.06 µg/mL
same,MIC,"[1]; isolate No. 17, MC 14-S-04, read-out: MIC",0.06 µg/mL
same,MIC,"[1]; isolate No. 18, MC 14-S-05, read-out: MIC",0.125 µg/mL
same,MIC,"[1]; isolate No. 19, MC 14-S-06, read-out: MIC",0.03 µg/mL
same,MIC,"[1]; isolate No. 20, MC 14-S-07, read-out: MIC",0.06 µg/mL
same,MIC,"[1]; isolate No. 21, MC 35757, read-out: MIC",0.125 µg/mL
same,MIC,"[1]; isolate No. 22, MC 7302, read-out: MIC",0.25 µg/mL
same,concentration for 1 log mycobacterial killing,[2],4.0 mg/L
same,concentration for 2 log mycobacterial killing,[2],4.8 mg/L
same,concentration for stasis (concentration-effect curve),[2],3.3 mg/L
same,concentrations achieving elimination,"[2]; time-kill, at day 3-7",no elimination was achieved
same,concentration showing inhibition of mycobacterial growth,[2]; [8],4 mg/L
same,Results/Observations (growth),[5],Markedly decreased growth around
same,"Free-drug AUC72-96, Plasma (Median)","[3]; human, in vivo",9.61 mg·h/L
same,AUC,"[3]; human, in vivo, AUCmean, Alveolar Cells (AC)",302000 ng·h/mL
same,AUC,"[3]; human, in vivo, AUCmean, Epithelial Lining Fluid (ELF)",17200 ng·h/mL
same,AUC,"[3]; human, in vivo, AUCmean, Plasma",11700 ng·h/mL
same,AUC,"[3]; human, in vivo, AUCmedian, Alveolar Cells (AC)",292000 ng·h/mL
same,AUC,"[3]; human, in vivo, AUCmedian, Epithelial Lining Fluid (ELF)",16700 ng·h/mL
same,AUC,"[3]; human, in vivo, AUCmedian, Plasma",11800 ng·h/mL
same,concentration at 0.5 h,[3]; [9],14300 ± 9300 ng/mL
same,concentration at 1 h,[3]; [9],12800 ± 8480 ng/mL
same,concentration at 2 h,[3]; [9],10800 ± 7590 ng/mL
same,concentration at 4 h,[3]; [9],18000 ± 7170 ng/mL
same,concentration at 8 h,[3]; [9],12300 ± 4700 ng/mL
same,concentration at 12 h,[3]; [9],12300 ± 4610 ng/mL
same,concentration at 24 h,[3]; [9],10400 ± 4040 ng/mL
same,concentration at 0.5 h,[3]; [10],1730 ± 1010 ng/mL
same,concentration at 1 h,[3]; [10],2250 ± 720 ng/mL
same,concentration at 2 h,[3]; [10],1510 ± 940 ng/mL
same,concentration at 4 h,[3]; [10],950 ± 330 ng/mL
same,concentration at 8 h,[3]; [10],580 ± 190 ng/mL
same,concentration at 12 h,[3]; [10],610 ± 290 ng/mL
same,concentration at 24 h,[3]; [10],410 ± 130 ng/mL
same,Kp,"[3]; human, in vivo, Penetration Ratio: total-drug ELF AUC72-96 to free-drug plasma AUC72-96 (Median)",1.93
same,Kp,"[3]; human, in vivo, Penetration ratio AC:Plasma based on AUCmean",25.8
same,Kp,"[3]; human, in vivo, Penetration ratio AC:Plasma based on AUCmedian",24.8
same,Kp,"[3]; human, in vivo, Penetration ratio ELF:Plasma based on AUCmean",1.47
same,Kp,"[3]; human, in vivo, Penetration ratio ELF:Plasma based on AUCmedian",1.42
same,concentration at 0.5 h,[3]; [11],1800 ng/mL
same,concentration at 1 h,[3]; [11],890 ng/mL
same,concentration at 2 h,[3]; [11],930 ng/mL
same,concentration at 4 h,[3]; [11],590 ng/mL
same,concentration at 8 h,[3]; [11],560 ng/mL
same,concentration at 12 h,[3]; [11],420 ng/mL
same,concentration at 24 h,[3]; [11],270 ng/mL
same,Kp at 0.5 h,[3]; [12],8.12 ± 5.95
same,Kp at 1 h,[3]; [12],13.8 ± 7.38
same,Kp at 2 h,[3]; [12],12.3 ± 6.57
same,Kp at 4 h,[3]; [12],34.7 ± 15.1
same,Kp at 8 h,[3]; [12],23.1 ± 11.2
same,Kp at 12 h,[3]; [12],29 ± 8.78
same,Kp at 24 h,[3]; [12],40.3 ± 10.3
same,Kp at 0.5 h,[3]; [13],0.95 ± 0.56
same,Kp at 1 h,[3]; [13],2.72 ± 1.26
same,Kp at 2 h,[3]; [13],1.5 ± 0.61
same,Kp at 4 h,[3]; [13],1.79 ± 0.49
same,Kp at 8 h,[3]; [13],1.07 ± 0.45
same,Kp at 12 h,[3]; [13],1.44 ± 0.57
same,Kp at 24 h,[3]; [13],1.65 ± 0.86
same,AUC,"[3]; human, in vivo, Total-drug AUC72-96, ELF (Median)",18500 ng·h/mL
same,Kp,"[3]; human, in vivo, concentration in epithelial lining fluid relative to plasma",> 1.4
same,Cmax,"[3]; human, in vivo, iv, 100 mg",2260 ± 760 ng/mL
same,Vd,"[3]; human, in vivo, iv, 100 mg",165 ± 58 L
same,Kp,"[3]; human, in vivo, mean concentration in alveolar cells relative to plasma",~25
same,Kp,"[3]; human, in vivo, mean concentration in epithelial lining fluid higher than in plasma",≥ 0.4
same,activity against SGM isolates (in words),[6],MIC values above the highest concentration evaluated
same,24-hour area under the curve compared to tigecycline,[7],approximately three-fold higher
